According to US20240165214A1, “COMPOSITIONS AND METHODS FOR STABILIZATION OF ALLOSTERIC PROTEINS” (priority 2021, published 2024):

Experiments:
guinea pig RBC = test: Red blood cell (RBC) aggregation by bacteria under rocking (Example 1); assay type: cell-based
Procedure: Guinea pig RBC (Colorado Serum Company) were washed with PBS three times. 50 μl of RBC suspension (1%) was mixed 1:1 with 50 μl of 4×10^8 of type 1 fimbriated bacteria in a glass plate in the absence and presence of 1% αmm and continuously mixed at high speed on rotator (Model 260300F, Fisher Scientific) for extended period of time. The aggregation of RBC was visually scored and the time at which noticeable aggregation was observed and reported in minutes (min). In some experiments, bacterial cells were first pre-incubated for 5 min with 67 μg/ml of mAbs in the glass plate and then mixed with RBC suspension in the absence and presence of 1% αmm.

RNase B = test: BLI kinetics of FimH fimbriae binding to RNase B; design: species or system bovine; settings: RNAseB binding
Procedure: To test the kinetics of fimbriae binding to RNase B, streptavidin-coated biosensors (SA, FortéBio) were first allowed to bind biotinylated RNase B (applied at a concentration of 10-20 μg/ml in 0.2% BSA HBS). […] The dissociation of the fimbriae-RNase B complexes was conducted in 0.2% BSA HBS. The binding sensorgrams after single reference subtraction (biosensors with 0.2% BSA HBS, or Fab824, respectively) were used for global fitting. […] The standard error that was given in the table for the kinetic parameters relates to the “fit” of the data to the model.

[1] = system: guinea pig red blood cells (RBC); test: RBC agglutination (rosette) under static conditions; assay type: cell-based
Procedure: (§1) Guinea pig RBC (Colorado Serum Company) were washed with PBS three times. 50 μl of RBC suspension (1%) was mixed 1:1 with 50 μl of 4×10^8 cfu of type 1 fimbriated bacteria in a glass plate in the absence and presence of 1% αmm and continuously mixed by gently rocking at ˜2-3 s^−1. The aggregation of RBC was visually scored and the time at which noticeable aggregation was observed and reported in minutes (min). In some experiments, bacterial cells were first pre-incubated for 5 min with 67 μg/ml of mAbs in the glass plate and then mixed with RBC suspension in the absence and presence of 1% αmm. RBC rosette-formation assay under was performed by mixing equal amounts of serially diluted bacterial sus-pensions (starting from OD540 nm 1.0) and a 1% suspension of RBC in U-bottom microtiter plate wells as described previously.
(§2) Finally, we compared cell binding ability of the FimH-expressing bacteria under static and dynamic conditions by using two classical set-ups with agglutination of guinea pig red blood cells (RBC)—the model cells for type 1 flmbriae-mediated bacterial adhesion. In the static assays, different dilutions of bacteria were combined with a suspension of RBC in U-shaped microtiter wells and allowed to settle without shaking. […]

mAb21 = mAb21 binding time course to immobilized fimbriae and three-state model; settings: for mAb21 binding over time course: absence of mannose, 10 sec to 2 hours; for keq ± SEM: Keq=kact/kdeact; for time to 50% of the maximal optical density (OD50) of mAb21 binding: presence of soluble mannose
Procedure: The assays were performed as described previously. In brief. 96-well microtiter plates were coated overnight with purified type 1 fimbriae in 0.02 M NaHCO3 buffer at pH 9.6 (0.1 mg/ml), followed by washes and quenching with 0.2% BSA in PBS. The immobilized fimbriae were incubated with HRP at a concentration of 50 μg/ml for 1 h in the absence or presence of 1% mannose. After extensive washing with PBS, bound horseradish peroxidase was detected by adding 100 μl of TMB substrate (Kirkegaard and Perry Laboratories, KPL) and absorbance was read at 650 nm. […] After the incubation for indicated time, the plates were washed extensively with PBS and FimH-mAb21 complexes were detected using HRP-conjugated goat anti-mouse antibody (Sigma-Aldrich, diluted 1:3000). All incubations, unless stated otherwise, were performed at 37 C. The colorimetric reaction was developed in the presence of TMB substrate at RT and absorbance was read at 650 nm.
For our modeling, we made the following definitions and assumptions.
To estimate kmAb21, we assumed that LD^A27V-PD^FocH is essentially all in HAS in the presence of mannose, so we fit high time-resolution data with a saturable binding model,
We then estimated kact and kdeact for all four variants in the presence and absence of mannose by fitting this model to the data by minimizing the least square error between the model and data points divided by the value of the data. Parameters were estimated independently for the data from each day the experiment was performed, to provide multiple values of each constant.
There were two limitations to using this model to estimate these parameters. […] Second, in two additional conditions—LD^wt-PD^wt in the presence of mannose and LD^A27V-PD^wt in the absence of mannose, a wide range of values of the rate constants produced the same fitting error. To identify a lower bound for the rate constants, we fit kact while holding kdeact constant over a wide range of values and observed that the error was high for low rates but reached a plateau at higher rates. We identified the lowest kdeact and corresponding kact values at which the error was no more than 10% that of all higher values. Throughout this plateau, Keq=kact/kdeact remained within a tight and reproducible range, so was well-determined by the model. For these two conditions, the lower bounds for the two kinetic constants and the upper and lower bound for the equilibrium constants are reported in Table 8.
For the remaining five conditions, the rate constants as well as equilibrium constants were reproducible for a wide range of initial guesses, and between replicate experiments, so we consider these to be reliable. […] These values were consistent with the estimated bounds and are also reported in FIGS. 20C and 20D for illustration.

HRP = assay type: binding; settings: fimbriae pre-treated with mAb824
Procedure: The assays were performed as described previously. In brief. 96-well microtiter plates were coated overnight with purified type 1 fimbriae in 0.02 M NaHCO3 buffer at pH 9.6 (0.1 mg/ml), followed by washes and quenching with 0.2% BSA in PBS. The immobilized fimbriae were incubated with HRP at a concentration of 50 μg/ml for 1 h in the absence or presence of 1% mannose. After extensive washing with PBS, bound horseradish peroxidase was detected by adding 100 μl of TMB substrate (Kirkegaard and Perry Laboratories, KPL) and absorbance was read at 650 nm. […] All incubations, unless stated otherwise, were performed at 37 C. The colorimetric reaction was developed in the presence of TMB substrate at RT and absorbance was read at 650 nm.

[2] = system: guinea pig red blood cells (RBC); test: RBC aggregation under dynamic (rocking) conditions; assay type: cell-based
Procedure: as §1, §2

[3] = target: T1, FimH^wt (FimH adhesin of E. coli K12) (Escherichia coli K12, UniProt P08191 22-300); test: BLI; fimbriae on biotinylated RNase B on streptavidin probe; conformational change model; PBS
T1 construct: also called FimH^K12; LD^A27V-PD^wt
Procedure: To test the kinetics of fimbriae binding to RNase B, streptavidin-coated biosensors (SA, FortéBio) were first allowed to bind biotinylated RNase B (applied at a concentration of 10-20 μg/ml in 0.2% BSA HBS). […] The dissociation of the fimbriae-RNase B complexes was conducted in 0.2% BSA HBS. […] The standard error that was given in the table for the kinetic parameters relates to the “fit” of the data to the model.

asialofetuin = test: FmIH-dependent bacterial adhesion to asialofetuin; assay type: cell-based
Procedure: (§3) FmIH-dependent bacterial adhesion was analyzed as described previously with minor modifications (47). Briefly, Immulon 4HBX microtiter plates (Thermo Electron Corp.) were coated with 20 μg/mL of asialofetuin (Sigma-Aldrich) and plates were quenched with 0.2% BSA in PBS. Bacterial suspensions in PBS (OD540=2) were added to each well in a volume of 100 μl and plates were spun for 2 min at 750×g. After extensive washing, bound bacteria were stained with 0.1% (vol/vol) crystal violet for 20 min at room temperature and were washed several times with water. Then 100 μl of 50% (vol/vol) ethanol was added to each well, and the absorbance at a wavelength of 600 nm was measured. For inhibition, bacterial binding was tested in the presence of 1% galactose (Sigma).
as §3, with “[Kisiela D I, et al. (2015) Inhibition and Reversal of Microbial Attachment by an Antibody with Parasteric Activity against the FimH Adhesin of Uropathogenic E. coli. PLoS Pathog 11: e1004857].” for “(47).”, “(ThermoFisher Scientific)” for “(Thermo Electron Corp.)”

[4] = full-length FmIH in type 1 fimbrial background

FimH^wt: 'wild-type' FimH adhesin from E. coli K12; b242: K12 and J96 express LD^A27V-PD^wt
Time upon which noticeable aggregation of RBC was observed (guinea pig RBC; mAb824 pre-incubation (67 μg/ml)): >60 min
Time upon which noticeable aggregation of RBC was observed (guinea pig RBC; αmm (1%)): >60 min
koff higher relative to FimH^FocH (RNase B): ~1000 fold
kon higher relative to FimH^FocH (RNase B): ~50 fold
lower affinity relative to FimH^FocH (RNase B): ~10 fold
RBC binding / rosette formation [1]: only at a relatively high concentration (low titer) of bacteria
mAb21 binding over time course (mAb21): only marginal at the later time points
kact ± SEM (mAb21; mannose absence): >8.8 × 10^−5
kdeact ± SEM (mAb21; mannose absence): >2.3 × 10^0
keq ± SEM (mAb21; mannose absence): 1.5 × 10^−3 to 4.0 × 10^−3
kact ± SEM (mAb21; mannose presence): 3.4 × 10^−3 ± 0.4 × 10^−3
kdeact ± SEM (mAb21; mannose presence): 8.7 × 10^−3 ± 1.7 × 10^−2
keq ± SEM (mAb21; mannose presence): 3.9 × 10^−1 ± 0.9 × 10^−1
time to 50% of the maximal optical density (OD50) of mAb21 binding (mAb21): ~3 min
binding of HRP in complex with mAb824 (HRP): remained very weak
Minimal IC of mannose [2]: .1%

LD^wt-PD^wt: naturally-occurring FimH from fecal E. coli strain F18, evolutionary wild-type
RBC binding / rosette formation [1]: could not bind RBC at any concentration
mAb21 binding over time course (mAb21): No reliably measurable binding
kact ± SEM (mAb21; mannose presence): >2.0 × 10^−4
kdeact ± SEM (mAb21; mannose presence): >8.5 × 10^−2
keq ± SEM (mAb21; mannose presence): 1.7 × 10^−2 to 2.3 × 10^−2
mAb21 binding to fimbriae (mAb21; presence of 1% alpha-methyl-mannoside, 1 h): somewhat lower
time to 50% of the maximal optical density (OD50) of mAb21 binding (mAb21): ~30 min
binding of HRP in complex with mAb824 (HRP): remained very weak
Minimal IC of mannose [2]: .1%

B1: ribonuclease B (RNase B), bovine (enzyme, UniProt P61823 27-150, looked up)
chain: KETAAAKFERQHMDSSTSAASSSNYCNQMMKSRNLTKDRCKPVNTFVHESLADVQAVCSQKNVACKNGQTNCYQSYSTMSITDCRETGSSKYPNCAYKTTQANKHIIVACEGNPYVPVHFDASV
modifications: N-linked high-mannose (Man5) oligosaccharides; biotinylated with Sulfo-NHS-LC-Biotin
Kd [3]: 149 nM
koff [3]: 0.256 s⁻¹
kon [3]: 1.1e+06 M⁻¹ s⁻¹

B2: V33E (protein, listed as Escherichia coli)
chain: FSCNVDGGSSIGAGTTSVYVNLDPVIQPGQNLEVDLSQHISCWNDYGGWYDTDHINLVQGSAFAGSLQSYKGSLYWNNVTYPFPLTTNTNVLDIGDKTPMPLPLKLYITPVGAAGGVVIKAGEVIARIHMYKIATLGSGNPRNFTWNIISNNSVVMPTGG
bacterial binding to asialofetuin (asialofetuin; [4]): activation of the binding phenotype

B3: L32E (protein, listed as Escherichia coli)
chain: FSCNVDGGSSIGAGTTSVYVNLDPVIQPGQNEVVDLSQHISCWNDYGGWYDTDHINLVQGSAFAGSLQSYKGSLYWNNVTYPFPLTTNTNVLDIGDKTPMPLPLKLYITPVGAAGGVVIKAGEVIARIHMYKIATLGSGNPRNFTWNIISNNSVVMPTGG
bacterial binding to asialofetuin (asialofetuin; [4]): did not increase binding
bacterial binding to asialofetuin (asialofetuin; mutation in FmIH^FocH): decreased the binding properties of FmIH^FocH

B4: F63E (protein, listed as Escherichia coli)
chain: FSCNVDGGSSIGAGTTSVYVNLDPVIQPGQNLVVDLSQHISCWNDYGGWYDTDHINLVQGSAEAGSLQSYKGSLYWNNVTYPFPLTTNTNVLDIGDKTPMPLPLKLYITPVGAAGGVVIKAGEVIARIHMYKIATLGSGNPRNFTWNIISNNSVVMPTGG
bacterial binding to asialofetuin (asialofetuin; [4]): activation of the binding phenotype

B5: FmIH^FocH: wild-type FmIH lectin domain fused to the heterogeneous FocH-type pilin domain (protein)
chain: FSCNVDGGSSIGAGTTSVYVNLDPVIQPGQNLVVDLSQHISCWNDYGGWYDTDHINLVQGSAFAGSLQSYKGSLYWNNVTYPFPLTTNTNVLDIGDKTPMPLPLKLYITPVGAAGGVVIKAGEVIARIHMYKIATLGSGNPRNFTWNIISNNSVVMPTGGCDVSARDVTVTLPDYPGSVPIPLTVRCDQTQSVSYTLSGSVADAGNSIFTNTASFSPAQGVGVQLTRNGTIIPANNTVSLGAVGTSAVSLGLTANYARTGGQVTAGNVQSIIGVTFVYQ
bacterial binding to asialofetuin (asialofetuin; [4]): increased binding relative to the wild-type adhesin
